Like-named read-outs stand apart in the source and are kept apart here. Residues, ends and D or L forms follow the SMILES beside them.
What was measured:
[1] = biological target: T1, human NOPr (Homo sapiens, UniProt P41146); assay: Radioligand competition binding with [3H]-nociceptin
T1 construct: expressed in transfected cells

[2] = biological target: T2, human MOPr (Homo sapiens, UniProt P35372); assay: BRET1 β-arrestin-2 recruitment assay; format: cell-based; parameters: expressed in transfected cells; host or cells: HEK293 cells stably expressing eYFP-β-arrestin-2, transiently transfected with the Rluc8-MOP plasmid; conditions: for Emax: read-out: MOPr (β-arrestin-2) Emax;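 on Emax: Emax relative to maximal DAMGO-induced BRET as 100%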;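 on MOPr (β-arrestin-2) Emax: Emax relative to maximal DAMGO-induced BRET as 100%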
T2 sequence (P35372 whole entry): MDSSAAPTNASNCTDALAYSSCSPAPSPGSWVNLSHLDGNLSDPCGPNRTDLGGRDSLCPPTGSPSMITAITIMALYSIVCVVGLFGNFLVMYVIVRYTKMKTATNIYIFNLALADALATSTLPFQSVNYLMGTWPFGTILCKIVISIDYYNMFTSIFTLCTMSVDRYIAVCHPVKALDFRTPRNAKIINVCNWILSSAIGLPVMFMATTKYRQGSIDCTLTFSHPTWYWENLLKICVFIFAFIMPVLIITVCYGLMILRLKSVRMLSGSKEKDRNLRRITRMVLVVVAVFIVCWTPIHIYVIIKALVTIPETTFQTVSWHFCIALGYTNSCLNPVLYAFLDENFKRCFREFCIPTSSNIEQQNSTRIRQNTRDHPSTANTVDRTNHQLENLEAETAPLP
How it was run: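 HEK293 cells stably expressing eYFP-β-arrestin-2 were transfected two days before with Rluc8-tagged MOP receptor. BRET was read at 37 °C with 5 μM coelenterazine H, 5 min after agonist addition.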

[3] = tested on: C57BL/6N mice; assay: Respiratory depression by whole body plethysmography; format: in vivo; conditions: acute sc.; KGOP01 1.8, KGFF03 1.2, KGFF09 7.4 μmol/kg; 100 min
Method: Ventilatory parameters were recorded in conscious C57BL/6N mice by whole body barometric plethysmography (Emka Technologies, Paris, France). Mice were acclimatized with the plethysmograph chamber for 30 min until a stable baseline was obtained. Then, the animal was gently removed from the chamber for sc. injection of the tested drug at TO and replaced in the chamber for the remaining measurements. Respiratory frequency (f) was recorded for 100 min and used as the index of respiratory depression.

[4] = biological target: T3, human DOPr (Homo sapiens, UniProt P41143); assay: Glo-sensor cAMP assay; format: cell-based
T3 construct: expressed in transfected cells; HEK293-Glo20F cells (cAMP)
T3 sequence (P41143 whole entry): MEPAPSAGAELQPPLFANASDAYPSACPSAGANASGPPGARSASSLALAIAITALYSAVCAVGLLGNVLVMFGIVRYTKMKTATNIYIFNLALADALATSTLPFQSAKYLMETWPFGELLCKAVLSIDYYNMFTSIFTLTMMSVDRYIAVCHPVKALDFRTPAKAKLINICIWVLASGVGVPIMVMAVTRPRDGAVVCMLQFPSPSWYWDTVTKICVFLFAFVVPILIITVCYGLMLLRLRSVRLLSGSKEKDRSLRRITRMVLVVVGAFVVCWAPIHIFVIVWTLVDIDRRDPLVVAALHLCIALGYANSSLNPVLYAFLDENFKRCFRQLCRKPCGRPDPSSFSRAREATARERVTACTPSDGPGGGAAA
Method: Stimulation by endogenous RF-amide peptides or test compounds for [^35S]-GTPγS binding to membranes from CHO cells expressing human NPFF1R or NPFF2R, were examined as reported. 1.6. Glo-Sensor cAMP Assay cAMP accumulation assay was essentially done as described with the following modifications: HEK293 cells stably expressing cAMP Glosensor-20F were used, with or without additional stable expression of each individual opioid receptor or NPFF1R. The cAMP responses were measured in presence of D-luciferin (1 mM). All peptides and test compounds were incubated in the presence of IBMX for 15 min before inducing cAMP production by forskolin. IBMX and forskolin concentrations were optimized for each receptor cell line: NPFF1R responses were recorded in presence of 0.1 mM IBMX and 0.4 μM forskolin, NPFF2R responses with 0.5 mM IBMX and 0.3 μM forskolin, MOPr responses with 0.5 mM IBMX and 0.125 μM forskolin, DOPr responses with 0.1 mM IBMX and 0.125 μM forskolin; KOPr and NOPr with 0.5 mM IBMX and 1.5 μM forskolin.

[5] = biological target: T4, GPR103 (Homo sapiens, UniProt Q96P65); assay: Radioligand competition binding with [125I]-43RFa
T4 construct: expressed in transfected cells; host or cells: CHO cells (gift from M. Parmentier, IRIBHM, Brussels), membranes
T4 sequence (Q96P65 1-431): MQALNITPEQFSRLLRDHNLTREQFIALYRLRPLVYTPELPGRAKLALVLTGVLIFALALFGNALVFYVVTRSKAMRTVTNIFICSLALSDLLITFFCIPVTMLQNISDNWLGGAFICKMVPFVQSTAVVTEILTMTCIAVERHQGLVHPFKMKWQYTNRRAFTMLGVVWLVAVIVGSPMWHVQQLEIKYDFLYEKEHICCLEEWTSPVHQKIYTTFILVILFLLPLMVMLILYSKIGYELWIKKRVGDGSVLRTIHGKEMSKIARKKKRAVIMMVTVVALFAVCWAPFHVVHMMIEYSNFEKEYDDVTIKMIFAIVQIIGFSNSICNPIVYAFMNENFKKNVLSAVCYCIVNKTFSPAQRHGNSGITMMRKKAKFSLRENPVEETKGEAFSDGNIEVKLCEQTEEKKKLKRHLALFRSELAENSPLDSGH

[6] = biological target: human NPFF1R (Homo sapiens, UniProt Q9GZQ6); assay: [35S]-GTPγS binding assay; format: biochemical; parameters: expressed in transfected cells; conditions: for Emax: relative to RFRP3
human NPFF1R, sequence (Q9GZQ6 whole entry): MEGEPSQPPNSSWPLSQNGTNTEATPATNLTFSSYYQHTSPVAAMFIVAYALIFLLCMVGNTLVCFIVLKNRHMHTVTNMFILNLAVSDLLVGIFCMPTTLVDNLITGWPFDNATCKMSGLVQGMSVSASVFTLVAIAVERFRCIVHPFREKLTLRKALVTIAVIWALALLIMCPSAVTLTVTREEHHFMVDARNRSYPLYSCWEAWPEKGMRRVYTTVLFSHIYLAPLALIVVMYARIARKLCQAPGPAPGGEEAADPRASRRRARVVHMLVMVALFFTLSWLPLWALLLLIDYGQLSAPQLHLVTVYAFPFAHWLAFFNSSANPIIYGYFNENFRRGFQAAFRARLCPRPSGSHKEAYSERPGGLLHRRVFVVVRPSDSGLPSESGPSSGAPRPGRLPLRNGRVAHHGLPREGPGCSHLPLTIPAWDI
Method: (§1) Stimulation by endogenous RF-amide peptides or test compounds for [^35S]-GTPγS binding to membranes from CHO cells expressing human NPFF1R or NPFF2R, were examined as reported. 1.6. Glo-Sensor cAMP Assay cAMP accumulation assay was essentially done as described with the following modifications: HEK293 cells stably expressing cAMP Glosensor-20F were used, with or without additional stable expression of each individual opioid receptor or NPFF1R. The cAMP responses were measured in presence of D-luciferin (1 mM).

[7] = biological target: NPFF2R (Homo sapiens, UniProt Q9Y5X5); assay: [35S]-GTPγS binding assay; format: biochemical; parameters: expressed in transfected cells;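 on Emax: Emax relative to NPFF as 100%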
NPFF2R, sequence (Q9Y5X5 whole entry): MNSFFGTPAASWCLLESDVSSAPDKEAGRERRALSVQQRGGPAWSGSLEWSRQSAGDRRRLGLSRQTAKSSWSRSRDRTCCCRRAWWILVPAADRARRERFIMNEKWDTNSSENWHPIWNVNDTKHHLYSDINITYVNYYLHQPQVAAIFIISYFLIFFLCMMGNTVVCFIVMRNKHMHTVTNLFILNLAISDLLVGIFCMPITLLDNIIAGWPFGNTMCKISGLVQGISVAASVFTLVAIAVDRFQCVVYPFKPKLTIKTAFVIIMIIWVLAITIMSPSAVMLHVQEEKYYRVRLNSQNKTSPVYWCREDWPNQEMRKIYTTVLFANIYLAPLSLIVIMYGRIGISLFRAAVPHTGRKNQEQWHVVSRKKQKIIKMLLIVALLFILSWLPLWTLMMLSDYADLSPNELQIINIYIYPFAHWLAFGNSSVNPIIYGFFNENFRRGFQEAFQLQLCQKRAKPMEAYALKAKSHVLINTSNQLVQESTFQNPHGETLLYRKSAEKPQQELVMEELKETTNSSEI
Method: as §1

[8] = biological target: T2, human MOPr; assay: Radioligand competition binding with [3H]-diprenorphine; parameters: expressed in transfected cells; HEK293-Glo20F cells (cAMP)
[9] = Table 3a, read-out: MOPr (β-arrestin-2) EC50
[10] = [125I]-43RFa, read-out: Ki ± SEM GPR103

T1 sequence (P41146 whole entry): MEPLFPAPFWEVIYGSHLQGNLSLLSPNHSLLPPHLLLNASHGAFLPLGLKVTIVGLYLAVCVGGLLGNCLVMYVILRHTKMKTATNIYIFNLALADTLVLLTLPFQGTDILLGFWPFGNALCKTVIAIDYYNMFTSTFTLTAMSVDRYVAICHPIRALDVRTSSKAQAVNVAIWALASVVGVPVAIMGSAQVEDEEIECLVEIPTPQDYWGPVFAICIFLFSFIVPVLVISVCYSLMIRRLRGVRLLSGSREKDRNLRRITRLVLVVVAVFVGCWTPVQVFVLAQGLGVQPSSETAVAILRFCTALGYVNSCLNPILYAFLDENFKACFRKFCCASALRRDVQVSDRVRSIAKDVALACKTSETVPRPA

Structure (SMILES)	Ki [1]	EC50 [2, 9]	β-arrestin-2 recruitment ([2]; in words)	Emax [2]	respiratory depression (respiratory frequency) compared to saline [3]	EC50 [4]	Emax [4]	Ki [5]	Emax [6]	Emax [7]	Ki [8]	Ki [5, 10]	EC50 [2]	β-arrestin-2 recruitment [2]	EC50 ([6]; membranes from CHO-hNPFF1R cells, read-out: NPFF1R (GTPγS) EC50)	EC50 ([7]; membranes from CHO-hNPFF2R cells, read-out: NPFF2R (GTPγS) EC50)
Cc1cc(O)cc(C)c1C[C@H](N)C(=O)N[C@H](CCCNC(=N)N)C(=O)N[C@H]1Cc2ccccc2CN(CCC(=O)N[C@@H](CCCNC(=N)N)C(=O)N[C@@H](Cc2ccccc2)C(N)=O)C1=O [KGFF03, H-Dmt-D-Arg-Aba-β-Ala-Arg-Phe-NH2] (HELM PEPTIDE1{[Cc1cc(O)cc(C)c1C[C@H](N)C(=O)[*:2]].[dR].[O=C1[C@@H](N[*:1])Cc2ccccc2CN1CCC(=O)[*:2]].R.F.[am]}$$$$V2.0)	289 ± 3 nM	33.9 ± 8.8 nM	partial agonism	41 ± 11%	did not	0.34 nM	89 ± 6%	> 10000 nM	88 ± 7%	111 ± 17%	0.24 ± 0.03 nM	–	–	–	–	–
Cc1cc(O)cc(C)c1C[C@H](N)C(=O)N[C@H](CCCNC(=N)N)C(=O)N[C@H]1Cc2ccccc2CN(CCC(=O)N[C@@H](CCCN2CCC(Cc3ccccc3)CC2)C(=O)N[C@@H](Cc2ccccc2)C(N)=O)C1=O [KGFF09, H-Dmt-D-Arg-Aba-β-Ala-Bpa-Phe-NH2]	209 ± 2 nM	56.4 ± 26.5 nM	partial agonism	42 ± 2%	did not	0.78 nM	90 ± 3%	–	10 ± 2%	38 ± 14%	2.43 ± 0.18 nM	1200 nM	–	–	–	–
Cc1cc(O)cc(C)c1C[C@H](N)C(=O)N[C@H](CCCNC(=N)N)C(=O)N[C@H]1Cc2ccccc2CN(CCC(N)=O)C1=O [KGOP01, reference compound]	> 10000 nM	–	–	103 ± 9%	significant respiratory depression	0.16 ± 0.01 nM	91 ± 2%	–	–	–	0.12 ± 0.02 nM	> 10000 nM	1.6 ± 0.1 nM	full response	> 10000 nM	> 10000 nM

— patent publication US20210002231A1 (Centre National de la Recherche Scientifique, priority 2018, published 2021)
